Consider 21 compounds from patent US20240254118A1, “PRMT5 INHIBITORS AND USES THEREOF” (Gilead Sciences, Inc., priority 2022, published 2024).

The test system of experiment [1] is SDMA signal (PRMT5 inhibition) in HCT116 MTAP-deleted cells. Kind of experiment: Symmetric di-methyl arginine image-based high content screen assay (SDMA assay), HCT116 MTAP-deleted. It is filed as cell-based. As to conditions: SDMA assay; for EC50: Homo sapiens, HCT-116, 72 h, 3 days of treatment, cell line not given, taken as HCT116 MTAP-deleted, read-out: EC50 (SDMA assay). Summed up:
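Read-out: per-cell mean SDMA immunofluorescence (Alexa Fluor 488 secondary), cells segmented by DAPI on a high-content imager. Compound exposure in HCT116 MTAP-deleted cells lasted until fixation on Day 3; overnight 4° C primary anti-SDMA antibody staining.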

Experiment [2] relates to HCT116 MTAP-deleted cells. Kind of experiment: Cell viability assay (CellTiter-Glo, 7 days), HCT116 MTAP-deleted. To be noted: Homo sapiens, HCT-116, 168 h. In general terms: Cellular ATP, detected with luciferase, serves as a proxy for viable cell number.
Where [3] appears, read: taken as HCT116 WT versus MTAP-deleted.

Each structure is given as a SMILES string. A value given as a limit tells only on which side of the number the result lay.

One may read the EC50 as the concentration needed to bring the measured effect to its halfway point. For orientation: CC50 means the concentration giving 50% cytotoxicity. `CN(C(=O)c1ncco1)N(Cc1ccc(C(F)(F)F)cc1)C(=O)c1ccc2nc(N)c3cnn(C)c3c2c1` [Example 219, N′-(4-amino-1-methyl-1H-pyrazolo[4,3-c]quinoline-8-carbonyl)-N-methyl-N′-(4-(trifluoromethyl)benzyl)oxazole-2-carbohydrazide]: the EC50 in experiment [1] is under 1 nM. Further, the “EC50 selectivity (SDMA assay)” value in experiment [1] (setting [3]) came to 9. In addition, the CC50 in experiment [2] is under 100 nM.

Turning to `CCC(=O)N(C)N(Cc1ncc(C(F)(F)F)cc1F)C(=O)c1ccc2nc(N)c3cnn(C)c3c2c1` [Example 265, 4-amino-N-((3-fluoro-5-(trifluoromethyl)pyridin-2-yl)methyl)-N′,1-dimethyl-N′-propionyl-1H-pyrazolo[4,3-c]quinoline-8-carbohydrazide], the EC50 in experiment [1] is under 1 nM. In addition, in experiment [1] (setting [3]), the “EC50 selectivity (SDMA assay)” value came to 209. In experiment [2], the CC50 was under 100 nM.

Turning to `[2H]C([2H])([2H])N(C(=O)C1CC1)N(Cc1ccc(C(F)(F)F)cn1)C(=O)c1ccc2nc(N)c3cnn(C)c3c2c1` [Example 325, 4-amino-N′-(cyclopropanecarbonyl)-1-methyl-N′-(methyl-d3)-N-((5-(trifluoromethyl)pyridin-2-yl)methyl)-1H-pyrazolo[4,3-c]quinoline-8-carbohydrazide], the EC50 in experiment [1] was under 1 nM. In addition, the “EC50 selectivity (SDMA assay)” value in experiment [1] (setting [3]) is 103. In experiment [2], the CC50 was under 100 nM.

On to `CN(C(=O)c1cocn1)N(Cc1ccc(C(F)(F)F)cc1)C(=O)c1ccc2nc(N)c3cnn(C)c3c2c1` [Example 218, N′-(4-amino-1-methyl-1H-pyrazolo[4,3-c]quinoline-8-carbonyl)-N-methyl-N′-(4-(trifluoromethyl)benzyl)oxazole-4-carbohydrazide], for which, in experiment [1], the EC50 was under 1 nM. Also, in experiment [1] (setting [3]), the “EC50 selectivity (SDMA assay)” value was determined as 6. The compound also registered a CC50 in experiment [2] of under 100 nM.

With `Cn1ncc2c(N)nc3ccc(C(=O)N(Cc4ccc(C(F)(F)F)cn4)NC(=O)OC(C)(C)C)cc3c21` [Example 277, tert-butyl 2-(4-amino-1-methyl-1H-pyrazolo[4,3-c]quinoline-8-carbonyl)-2-((5-(trifluoromethyl)pyridin-2-yl)methyl)hydrazine-1-carboxylate], the EC50 in experiment [1] lay within 1 to 5 nM. Besides, in experiment [1] (setting [3]), the “EC50 selectivity (SDMA assay)” value was 229. The compound also displayed a CC50 in experiment [2] of under 100 nM.

With `Cn1ncc2c(N)nc3cc(F)c(C(=O)N(Cc4ccc(C(F)(F)F)cn4)N4CCOC4=O)cc3c21` [Example 145, 4-amino-7-fluoro-1-methyl-N-(2-oxooxazolidin-3-yl)-N-[[5-(trifluoromethyl)-2-pyridyl]methyl]pyrazolo[4,3-c]quinoline-8-carboxamide], the EC50 in experiment [1] is under 1 nM. For the same compound, the “EC50 selectivity (SDMA assay)” value in experiment [1] (setting [3]) is recorded as 45. In experiment [2], this compound yielded a CC50 of under 100 nM.

As for `Cn1ncc2c(N)nc3ccc(C(=O)N(Cc4ccc(C(F)(F)F)cn4)N4CCCC4)cc3c21` [Example 27, 4-amino-1-methyl-N-pyrrolidin-1-yl-N-[[5-(trifluoromethyl)-2-pyridyl]methyl]pyrazolo[4,3-c]quinoline-8-carboxamide], the EC50 in experiment [1] was under 1 nM. Further, the “EC50 selectivity (SDMA assay)” value in experiment [1] (setting [3]) is 94. The CC50 in experiment [2] is under 100 nM.

Consider `Cn1ncc2c(N)nc3ccc(C(=O)N(Cc4ccc(C(F)(F)F)cn4)N4CCC(F)(F)C4=O)cc3c21` [Example 171, 4-amino-N-(3,3-difluoro-2-oxo-pyrrolidin-1-yl)-1-methyl-N-[[5-(trifluoromethyl)-2-pyridyl]methyl]pyrazolo[4,3-c]quinoline-8-carboxamide], for which the EC50 in experiment [1] was under 1 nM. Also, in experiment [1] (setting [3]), the “EC50 selectivity (SDMA assay)” value stood at 571. This compound came in with a CC50 in experiment [2] of under 100 nM.

Take `Cc1nc2ccc(CN(C(=O)c3ccc4nc(N)c5cnn(C)c5c4c3)N(C)C(=O)C3CC3)cc2s1` [Example 275, 4-amino-N′-(cyclopropanecarbonyl)-N′,1-dimethyl-N-((2-methylbenzo[d]thiazol-6-yl)methyl)-1H-pyrazolo[4,3-c]quinoline-8-carbohydrazide]: in experiment [1], the EC50 is under 1 nM. In addition, in experiment [1] (setting [3]), the “EC50 selectivity (SDMA assay)” value was determined as 129. This compound yielded a CC50 in experiment [2] of under 100 nM.

Regarding `CC(=O)N(C)N(Cc1ccc2nc(C)sc2c1)C(=O)c1ccc2nc(N)c3cnn(C)c3c2c1` [Example 321, N′-acetyl-4-amino-N′,1-dimethyl-N-((2-methylbenzo[d]thiazol-6-yl)methyl)-1H-pyrazolo[4,3-c]quinoline-8-carbohydrazide], in experiment [1], the EC50 was under 1 nM. Moreover, in experiment [1] (setting [3]), the “EC50 selectivity (SDMA assay)” value came out at 85. The compound further registered a CC50 in experiment [2] of under 100 nM.

On to `Cn1ncc2c(N)nc3ccc(C(=O)N(Cc4nc5cc(Cl)ccc5n4C)N4CCCC4=O)cc3c21` [Example 208, 4-Amino-N-[(5-chloro-1-methyl-benzimidazol-2-yl)methyl]-1-methyl-N-(2-oxopyrrolidin-1-yl)pyrazolo[4,3-c]quinoline-8-carboxamide], for which the EC50 in experiment [1] is under 1 nM. The “EC50 selectivity (SDMA assay)” value in experiment [1] (setting [3]) was determined as 91. The same compound registered a CC50 in experiment [2] of under 100 nM.

In the case of `CN(C(=O)C1CC1)N(Cc1ccc(C(F)(F)F)cn1)C(=O)c1ccc2nc(N)c3cn[nH]c3c2c1` [Example 281, 4-amino-N′-(cyclopropanecarbonyl)-N′-methyl-N-((5-(trifluoromethyl)pyridin-2-yl)methyl)-1H-pyrazolo[4,3-c]quinoline-8-carbohydrazide], the EC50 in experiment [1] was 1 to 5 nM. Moreover, the “EC50 selectivity (SDMA assay)” value in experiment [1] (setting [3]) is reported as 70. Besides, the CC50 in experiment [2] was under 100 nM.

Take `Cn1ncc2c(N)nc3cc(F)c(C(=O)N(Cc4ccc(C(F)(F)F)cn4)N4CCCOC4=O)cc3c21` [Example 144, 4-amino-7-fluoro-1-methyl-N-(2-oxo-1,3-oxazinan-3-yl)-N-[[5-(trifluoromethyl)-2-pyridyl]methyl]pyrazolo[4,3-c]quinoline-8-carboxamide]: the EC50 in experiment [1] lay in the range of 1 to 5 nM. Also, the “EC50 selectivity (SDMA assay)” value in experiment [1] (setting [3]) was 43. Also, the CC50 in experiment [2] is under 100 nM.

For the compound `Cn1ncc2c(N)nc3cc(F)c(C(=O)N(Cc4ccc(C(F)(F)F)cn4)NC(=O)C4(F)CC4)cc3c21` [Example 294, 4-amino-7-fluoro-N′-(1-fluorocyclopropane-1-carbonyl)-1-methyl-N-((5-(trifluoromethyl)pyridin-2-yl)methyl)-1H-pyrazolo[4,3-c]quinoline-8-carbohydrazide], the EC50 in experiment [1] was under 1 nM. The “EC50 selectivity (SDMA assay)” value in experiment [1] (setting [3]) was determined as 97. In experiment [2], this compound displayed a CC50 of under 100 nM.

Consider `CN1CCN(N(Cc2cn3ccc(Cl)cc3n2)C(=O)c2ccc3nc(N)c4cnn(C)c4c3c2)C1=O` [Example 125, 4-Amino-N-[(7-chloroimidazo[1,2-a]pyridin-2-yl)methyl]-1-methyl-N-(3-methyl-2-oxo-imidazolidin-1-yl)pyrazolo[4,3-c]quinoline-8-carboxamide], for which the EC50 in experiment [1] lay in the range of 1 to 5 nM. In experiment [1] (setting [3]), the “EC50 selectivity (SDMA assay)” value turned out to be 60. In experiment [2], this compound returned a CC50 of under 100 nM.

As to `CC(=O)N(C)N(Cc1ccc(C2CC2)cc1)C(=O)c1ccc2nc(N)c3cnn(C)c3c2c1` [Example 98, N′-acetyl-4-amino-N-(4-cyclopropylbenzyl)-N′,1-dimethyl-1H-pyrazolo[4,3-c]quinoline-8-carbohydrazide], the EC50 in experiment [1] was under 1 nM. The “EC50 selectivity (SDMA assay)” value in experiment [1] (setting [3]) is listed as 120. For the same compound, the 50% cytotoxic concentration (CC50) in experiment [2] is under 100 nM.

As for `CN(C(=O)c1ccnn1C)N(Cc1ccc(C(F)(F)F)cn1)C(=O)c1ccc2nc(N)c3cnn(C)c3c2c1` [Example 175, 4-amino-N′,1-dimethyl-N′-(1-methyl-1H-pyrazole-5-carbonyl)-N-((5-(trifluoromethyl)pyridin-2-yl)methyl)-1H-pyrazolo[4,3-c]quinoline-8-carbohydrazide], in experiment [1], the EC50 was 1 to 5 nM. For the same compound, in experiment [1] (setting [3]), the “EC50 selectivity (SDMA assay)” value was determined as 19. Moreover, in experiment [2], the CC50 is under 100 nM.

Turning to `CC(=O)N(C)N(Cc1ccc(C2CC2)nc1)C(=O)c1ccc2nc(N)c3cnn(C)c3c2c1` [Example 232, N′-acetyl-4-amino-N-((6-cyclopropylpyridin-3-yl)methyl)-N′,1-dimethyl-1H-pyrazolo[4,3-c]quinoline-8-carbohydrazide], in experiment [1], the EC50 is 1 to 5 nM. The “EC50 selectivity (SDMA assay)” value in experiment [1] (setting [3]) was 298. This compound came in with a CC50 in experiment [2] of under 100 nM.

Turning to `COc1cc(C(F)(F)F)ccc1CN(C(=O)c1ccc2nc(N)c3cnn(C)c3c2c1)N1CCCCC1=O` [Example 67, 4-amino-N-[[2-methoxy-4-(trifluoromethyl)phenyl]methyl]-1-methyl-N-(2-oxo-1-piperidyl)pyrazolo[4,3-c]quinoline-8-carboxamide], the EC50 in experiment [1] is under 1 nM. Further, the “EC50 selectivity (SDMA assay)” value in experiment [1] (setting [3]) is given as 25. The same compound yielded a CC50 in experiment [2] of under 100 nM.

Regarding `CN(C(=O)C1CC1)N(Cc1ccc(-c2cnn(C(F)F)c2)cc1F)C(=O)c1ccc2nc(N)c3cnn(C)c3c2c1` [Example 238, 4-amino-N′-(cyclopropanecarbonyl)-N-(4-(1-(difluoromethyl)-1H-pyrazol-4-yl)-2-fluorobenzyl)-N′,1-dimethyl-1H-pyrazolo[4,3-c]quinoline-8-carbohydrazide], the EC50 in experiment [1] is under 1 nM. The “EC50 selectivity (SDMA assay)” value in experiment [1] (setting [3]) was found to be 77. The CC50 in experiment [2] was under 100 nM.

For `CC(=O)N(C)N(Cc1cc(F)c(F)cc1Cl)C(=O)c1ccc2nc(N)c3cnn(C)c3c2c1` [Example 450, N′-acetyl-4-amino-N-(2-chloro-4,5-difluorobenzyl)-N′,1-dimethyl-1H-pyrazolo[4,3-c]quinoline-8-carbohydrazide], the EC50 in experiment [1] was under 1 nM. For the same compound, the “EC50 selectivity (SDMA assay)” value in experiment [1] (taken as HCT116 WT vs MTAP-deleted) amounted to 394. This compound also yielded a CC50 in experiment [2] of under 100 nM.
